The values below come from patent publication US10227342B2 (ARIAD PHARMACEUTICALS, INC., priority 2014, dated 2019).

Molecules are shown by their SMILES.

Format in all cases: cell-based
Assay [1] deals with Her2 exon 20 YVMA insertion (A775_G776ins YVMA) (Homo sapiens (Human), UniProt P04626, INS775YVMA). Nature of the assay: Ba/F3-Her2 Exon20 YVMA cell anti-proliferative assay (CellTiter 96 MTS, 72 h). To be noted: Ba/F3-Her2 Exon20 YVMA cells. The text has this: Ba/F3 cells expressing Her2 Exon20 YVMA insertions (named Ba/F3-Her2 Exon20 YVMA) can proliferate in the absence of IL-3.
Chain of Her2 exon 20 YVMA insertion (A775_G776ins YVMA) (P04626 other isoform, or with tags, fused parts or gaps ins YVMA behind 775): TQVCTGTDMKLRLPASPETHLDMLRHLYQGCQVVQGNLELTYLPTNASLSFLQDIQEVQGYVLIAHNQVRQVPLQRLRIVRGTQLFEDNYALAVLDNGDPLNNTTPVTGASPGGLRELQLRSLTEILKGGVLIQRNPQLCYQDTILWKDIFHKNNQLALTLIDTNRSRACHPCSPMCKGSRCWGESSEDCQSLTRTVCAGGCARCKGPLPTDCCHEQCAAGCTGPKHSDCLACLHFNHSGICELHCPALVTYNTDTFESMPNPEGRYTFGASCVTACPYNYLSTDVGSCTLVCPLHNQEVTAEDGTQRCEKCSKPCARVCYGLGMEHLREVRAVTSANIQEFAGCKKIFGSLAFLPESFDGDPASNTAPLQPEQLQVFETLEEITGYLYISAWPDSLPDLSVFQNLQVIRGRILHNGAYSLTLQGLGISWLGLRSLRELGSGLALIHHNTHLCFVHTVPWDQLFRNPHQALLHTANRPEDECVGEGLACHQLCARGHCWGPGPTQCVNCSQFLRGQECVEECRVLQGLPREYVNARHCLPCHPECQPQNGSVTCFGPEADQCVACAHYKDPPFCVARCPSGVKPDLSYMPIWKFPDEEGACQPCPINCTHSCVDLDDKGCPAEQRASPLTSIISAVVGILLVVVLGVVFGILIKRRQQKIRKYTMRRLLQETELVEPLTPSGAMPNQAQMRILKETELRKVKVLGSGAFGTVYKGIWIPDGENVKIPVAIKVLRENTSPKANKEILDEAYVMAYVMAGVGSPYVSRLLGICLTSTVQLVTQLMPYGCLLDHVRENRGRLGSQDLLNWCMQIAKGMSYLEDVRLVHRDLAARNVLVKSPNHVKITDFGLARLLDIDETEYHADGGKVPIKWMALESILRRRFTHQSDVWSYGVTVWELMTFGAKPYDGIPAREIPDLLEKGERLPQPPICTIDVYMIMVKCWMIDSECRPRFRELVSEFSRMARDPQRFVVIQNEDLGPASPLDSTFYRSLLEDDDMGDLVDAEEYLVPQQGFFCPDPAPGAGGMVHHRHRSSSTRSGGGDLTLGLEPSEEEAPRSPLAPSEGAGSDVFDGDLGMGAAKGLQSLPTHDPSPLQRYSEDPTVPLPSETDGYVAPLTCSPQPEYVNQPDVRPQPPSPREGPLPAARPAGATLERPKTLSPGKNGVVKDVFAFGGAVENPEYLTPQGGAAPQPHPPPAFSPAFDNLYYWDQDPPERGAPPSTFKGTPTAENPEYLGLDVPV

The target of assay [2] is human EGFR exon 20 insertion ASV (V769_D770insASV) (Homo sapiens (Human), UniProt P00533, INS769ASV). Nature of the assay: Ba/F3-EGFR-Exon20-ASV cell anti-proliferative assay (CellTiter 96 MTS, 72 h).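 Note: Ba/F3 cells bearing the EGFR exon 20 ASV insertion, a line able to proliferate without IL-3.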 Particulars: Ba/F3-EGFR-Exon20-ASV cells.
Chain of human EGFR exon 20 insertion ASV (V769_D770insASV) (P00533 other isoform, or with tags, fused parts or gaps ins ASV behind 769): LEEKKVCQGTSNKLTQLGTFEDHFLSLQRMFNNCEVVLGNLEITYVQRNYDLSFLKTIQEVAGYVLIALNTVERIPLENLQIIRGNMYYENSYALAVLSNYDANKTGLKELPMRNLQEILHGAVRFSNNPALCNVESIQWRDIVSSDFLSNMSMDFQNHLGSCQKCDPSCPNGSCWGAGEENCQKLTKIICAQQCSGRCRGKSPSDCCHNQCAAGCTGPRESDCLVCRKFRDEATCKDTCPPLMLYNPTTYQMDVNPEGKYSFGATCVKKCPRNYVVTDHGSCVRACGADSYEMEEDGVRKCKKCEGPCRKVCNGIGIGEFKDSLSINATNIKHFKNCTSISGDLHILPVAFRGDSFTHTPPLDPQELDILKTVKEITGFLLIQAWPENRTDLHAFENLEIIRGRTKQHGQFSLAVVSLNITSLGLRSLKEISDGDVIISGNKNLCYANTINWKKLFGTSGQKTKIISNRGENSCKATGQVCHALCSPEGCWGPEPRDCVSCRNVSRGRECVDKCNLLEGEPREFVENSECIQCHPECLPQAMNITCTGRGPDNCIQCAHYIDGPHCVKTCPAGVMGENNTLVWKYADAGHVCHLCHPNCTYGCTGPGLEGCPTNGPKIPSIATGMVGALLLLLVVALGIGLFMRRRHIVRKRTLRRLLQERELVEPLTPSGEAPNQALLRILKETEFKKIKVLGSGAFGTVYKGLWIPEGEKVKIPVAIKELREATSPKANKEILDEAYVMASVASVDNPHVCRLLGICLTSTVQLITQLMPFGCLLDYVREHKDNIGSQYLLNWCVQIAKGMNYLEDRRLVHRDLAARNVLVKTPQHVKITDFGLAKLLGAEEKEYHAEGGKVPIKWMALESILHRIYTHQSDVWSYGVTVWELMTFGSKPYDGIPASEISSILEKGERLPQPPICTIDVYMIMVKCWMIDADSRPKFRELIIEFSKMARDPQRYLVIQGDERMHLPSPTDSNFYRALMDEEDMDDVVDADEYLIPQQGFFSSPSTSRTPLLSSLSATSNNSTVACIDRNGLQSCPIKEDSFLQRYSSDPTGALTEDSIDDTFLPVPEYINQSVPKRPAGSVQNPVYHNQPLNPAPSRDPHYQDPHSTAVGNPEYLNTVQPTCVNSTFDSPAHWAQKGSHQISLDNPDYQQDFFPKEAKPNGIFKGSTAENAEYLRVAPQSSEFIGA
Assay [3] has as its target human EGFR exon 20 insertion NPG (H773_V774insNPG) (Homo sapiens, UniProt P00533, INS773NPG, cells depend on it). Nature of the assay: Ba/F3-EGFR-Exon20-NPG cell anti-proliferative assay (CellTiter 96 MTS, 72 h). To be noted: read-out: EGFR exon 20 NPG insertion IC50.
Protocol: Ba/F3 cells expressing EGFR exon 20 insertions (named Ba/F3-EGFR-Exon20-NPG or Ba/F3-EGFR-Exon20-ASV) can proliferate in the absence of IL-3. The anti-proliferative activity of compounds were determined as follows: BaF3-EGFR-Exon20 cells (NPG or ASV) seeded in 96 well plates (2500 cells/well) were treated with test compound (dissolved in DMSO) at a series of concentrations (4-fold dilution, top concentration: 10,000 nM). The plates were incubated for 72 h in a 37° C. incubator with 5% CO2, and the number of viable cells in each well were measured indirectly by CellTiter 96® Aqueous One Solution Cell Proliferation Assay (Promega) This assay is a colorimetric method for determining the number of viable cells through measurement of their metabolic activity by detection of enzymatic conversion of tetrazolium salts into blue formazan derivatives. Reagent (20 μL) was added into each well, and the plates were returned to the incubator for 2 h. The absorbance in each well was then measured at 490 nm using an Envision plate reader (Perkin Elmer).
Assay [4] has as its target human EGFR E746-A750 deletion and T790M Mutation (DT) (Homo sapiens (Human), UniProt P00533, DEL746-750/T790M). Nature of the assay: Ba/F3-EGFR-Del/T790M cell anti-proliferative assay (CellTiter 96 MTS, 72 h). To be noted: Ba/F3-EGFR-Del/T790M cells; for IC50: read-out: EGFR exon 19 deletion and T790M mutation IC50.
Protocol: An expression vector, pLVX-IRES puro (Clontech) coding for human EGFR E746-A750 deletion and T790M Mutation, was transfected into HEK293 cells by the Trans-Lentiviral ORF Packaging System (Thermo Scientific), to produce virus encoding EGFR exon 19 deletion and T790M mutations. […] Ba/F3 cells expressing EGFR E746-A750 deletion and T790M Mutation (named Ba/F3-EGFR-Del/T790M) can proliferate in the absence of IL-3. The anti-proliferative activity of compounds was determined as follows: BaF3-EGFR-Del/T790M cells seeded in 96 well plates (2500 cells/well) were treated with test compound (dissolved in DMSO) at a series of concentrations (4-fold dilution, top concentration: 10,000 nM). The plates were incubated for 72 h in a 37° C. incubator with 5% CO2, and the number of viable cells in each well were measured indirectly by CellTiter 96® Aqueous One Solution Cell Proliferation Assay (Promega; this assay is a colorimetric method for determining the number of viable cells through measurement of their metabolic activity by detection of enzymatic conversion of tetrazolium salts into blue formazan derivatives). Reagent (20 μL) was added into each well, and the plates were returned to the incubator for 2 h. The absorbance in each well was then measured at 490 nm using an Envision plate reader (Perkin Elmer).
In assay [5] the target is human EGFR L858R and T790M double mutation (LT) (Homo sapiens (Human), UniProt P00533, L858R/T790M). Nature of the assay: Ba/F3-EGFR L858R/T790M cell anti-proliferative assay (CellTiter 96 MTS, 72 h).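 For all read-outs here: Ba/F3 cells carrying the EGFR L858R/T790M double mutant are able to grow without IL-3.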 To be noted: Ba/F3-EGFR L858R/T790M cells; for IC50: read-out: EGFR exon 21 L858R and T790M mutation IC50.
Chain of human EGFR L858R and T790M double mutation (LT) (P00533 25-1210 T790M/L858R): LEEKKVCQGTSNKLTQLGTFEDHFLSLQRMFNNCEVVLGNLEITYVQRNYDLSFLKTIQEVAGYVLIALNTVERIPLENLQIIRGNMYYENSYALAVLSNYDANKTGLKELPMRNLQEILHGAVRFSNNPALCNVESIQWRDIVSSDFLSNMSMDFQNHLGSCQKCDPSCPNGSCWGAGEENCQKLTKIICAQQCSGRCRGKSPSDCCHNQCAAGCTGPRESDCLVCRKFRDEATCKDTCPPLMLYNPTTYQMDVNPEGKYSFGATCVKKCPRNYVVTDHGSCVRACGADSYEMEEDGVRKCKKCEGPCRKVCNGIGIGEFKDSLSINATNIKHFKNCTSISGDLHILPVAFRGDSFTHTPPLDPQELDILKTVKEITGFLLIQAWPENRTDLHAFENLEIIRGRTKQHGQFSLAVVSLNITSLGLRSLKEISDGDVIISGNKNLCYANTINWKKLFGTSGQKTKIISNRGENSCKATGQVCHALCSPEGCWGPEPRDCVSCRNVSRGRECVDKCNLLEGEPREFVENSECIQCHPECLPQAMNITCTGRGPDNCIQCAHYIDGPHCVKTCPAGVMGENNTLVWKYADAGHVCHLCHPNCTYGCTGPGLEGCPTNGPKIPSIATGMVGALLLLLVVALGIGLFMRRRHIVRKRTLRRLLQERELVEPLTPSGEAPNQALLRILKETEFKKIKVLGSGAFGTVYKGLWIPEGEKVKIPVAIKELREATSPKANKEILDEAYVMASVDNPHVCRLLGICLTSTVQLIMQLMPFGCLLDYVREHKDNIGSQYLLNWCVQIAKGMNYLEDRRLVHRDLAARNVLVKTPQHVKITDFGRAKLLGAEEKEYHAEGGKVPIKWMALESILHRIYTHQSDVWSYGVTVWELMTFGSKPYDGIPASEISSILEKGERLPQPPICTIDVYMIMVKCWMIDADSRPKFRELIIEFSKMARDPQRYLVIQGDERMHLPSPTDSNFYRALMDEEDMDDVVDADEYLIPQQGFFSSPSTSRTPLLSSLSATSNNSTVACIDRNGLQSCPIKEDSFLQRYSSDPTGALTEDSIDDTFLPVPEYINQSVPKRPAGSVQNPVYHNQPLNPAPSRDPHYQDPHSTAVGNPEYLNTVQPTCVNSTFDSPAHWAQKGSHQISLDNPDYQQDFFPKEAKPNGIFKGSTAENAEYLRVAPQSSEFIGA
Protocol: An expression vector, pLVX-IRES puro (Clontech) coding for human EGFR L858R and T790M double mutation, was transfected into HEK293 cells by the Trans-Lentiviral ORF Packaging System (Thermo Scientific), to produce virus encoding EGFR L858R and T790M double mutations. […] Ba/F3 cells expressing EGFR L858R and T790M double mutation (named Ba/F3-EGFR L858R/T790M) can proliferate in the absence of IL-3. The anti-proliferative activity of compounds was determined as follows: BaF3-EGFR L858R/T790M cells seeded in 96 well plates (2500 cells/well) were treated with test compound (dissolved in DMSO) at a series of concentrations (4-fold dilution, top concentration: 10,000 nM). The plates were incubated for 72 h in a 37° C. incubator with 5% CO2, and the number of viable cells in each well were measured indirectly by CellTiter 96® Aqueous One Solution Cell Proliferation Assay (Promega; this assay is a colorimetric method for determining the number of viable cells through measurement of their metabolic activity by detection of enzymatic conversion of tetrazolium salts into blue formazan derivatives). Reagent (20 μL) was added into each well, and the plates were returned to the incubator for 2 h. The absorbance in each well was then measured at 490 nm using an Envision plate reader (Perkin Elmer).

Chain of human EGFR E746-A750 deletion and T790M Mutation (DT) (P00533 other isoform, or with tags, fused parts or gaps T790M/del E746-A750): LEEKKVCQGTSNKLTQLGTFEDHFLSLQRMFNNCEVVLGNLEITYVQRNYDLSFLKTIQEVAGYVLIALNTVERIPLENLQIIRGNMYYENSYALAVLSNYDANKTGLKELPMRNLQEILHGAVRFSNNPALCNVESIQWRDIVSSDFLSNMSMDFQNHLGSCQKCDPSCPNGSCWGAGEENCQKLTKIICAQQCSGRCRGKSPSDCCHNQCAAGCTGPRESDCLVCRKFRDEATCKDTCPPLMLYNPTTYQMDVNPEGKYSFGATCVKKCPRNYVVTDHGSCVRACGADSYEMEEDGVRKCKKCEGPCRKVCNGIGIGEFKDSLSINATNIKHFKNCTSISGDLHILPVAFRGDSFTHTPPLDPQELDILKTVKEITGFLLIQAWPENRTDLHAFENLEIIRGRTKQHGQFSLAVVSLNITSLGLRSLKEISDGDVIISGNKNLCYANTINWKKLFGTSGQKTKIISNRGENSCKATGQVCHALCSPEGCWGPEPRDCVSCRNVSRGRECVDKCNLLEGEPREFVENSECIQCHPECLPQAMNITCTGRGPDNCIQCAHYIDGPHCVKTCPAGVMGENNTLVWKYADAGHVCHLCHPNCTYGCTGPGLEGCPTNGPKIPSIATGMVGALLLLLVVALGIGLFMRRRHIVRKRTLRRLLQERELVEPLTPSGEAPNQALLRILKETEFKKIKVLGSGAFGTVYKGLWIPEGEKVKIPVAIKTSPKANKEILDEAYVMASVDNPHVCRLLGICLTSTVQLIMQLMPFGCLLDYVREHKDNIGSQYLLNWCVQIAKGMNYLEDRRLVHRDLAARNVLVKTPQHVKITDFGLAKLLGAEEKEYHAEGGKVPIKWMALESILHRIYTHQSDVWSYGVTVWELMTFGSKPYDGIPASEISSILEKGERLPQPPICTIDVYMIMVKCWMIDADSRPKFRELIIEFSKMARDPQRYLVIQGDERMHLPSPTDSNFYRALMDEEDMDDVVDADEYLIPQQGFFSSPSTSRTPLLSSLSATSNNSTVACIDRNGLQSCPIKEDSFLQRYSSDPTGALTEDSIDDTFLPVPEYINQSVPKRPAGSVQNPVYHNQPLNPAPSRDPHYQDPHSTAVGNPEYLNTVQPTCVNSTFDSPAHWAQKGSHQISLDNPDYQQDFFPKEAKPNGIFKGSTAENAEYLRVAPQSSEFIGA

For orientation: IC50 means the concentration that inhibits the measured activity by half. `C=CC(=O)Nc1cc(Nc2ncc(C(=O)OC(C)C)c(-c3cn(C)c4ccccc34)n2)c(OC)cc1N(C)CC1CCCN1C` (centres unmarked) [Example 17, isopropyl 2-((5-acrylamido-2-methoxy-4-(methyl((1-methylpyrrolidin-2-yl)methyl)amino)phenyl)amino)-4-(1-methyl-1H-indol-3-yl)pyrimidine-5-carboxylate]: the half-maximal inhibitory concentration (IC50) in assay [1], in assay [2], in assay [3], in assay [4] and in assay [5] was under 100 nM throughout.

Consider `C=CC(=O)Nc1cc(Nc2ncc(C(=O)OCC)c(-c3cn(C)c4ccccc34)n2)c(OC)cc1N(C)CCN(C)C` [Example 9, ethyl 2-((5-acrylamido-4-((2-(dimethylamino)ethyl)(methyl)amino)-2-methoxyphenyl)amino)-4-(1-methyl-1H-indol-3-yl)pyrimidine-5-carboxylate], for which the IC50 in assay [1], in assay [2], in assay [3], in assay [4] and in assay [5] was under 100 nM throughout.

Turning to `C=CC(=O)Nc1cc(Nc2ncc(C(=O)OC(C)C)c(-c3c[nH]c4ncccc34)n2)c(OC)cc1N(C)CCN(C)C` [Example 66, isopropyl 2-((5-acrylamido-4-((2-(dimethylamino)ethyl)(methyl)amino)-2-methoxyphenyl)amino)-4-(1H-pyrrolo[2,3-b]pyridin-3-yl)pyrimidine-5-carboxylate], the IC50 in assay [1], in assay [2], in assay [3], in assay [4] and in assay [5] was under 100 nM each time.

Turning to `C=CC(=O)Nc1cc(Nc2ncc(C(=O)OC(C)C)c(-c3cn(C)c4ccccc34)n2)c(OC)cc1N(C)CCNC` [Example 58, isopropyl 2-((5-acrylamido-2-methoxy-4-(methyl(2-(methylamino)ethyl)-amino)phenyl)amino)-4-(1-methyl-1H-indol-3-yl)pyrimidine-5-carboxylate], the 50% inhibitory concentration (IC50) in assay [1], in assay [2], in assay [3], in assay [4] and in assay [5] was under 100 nM in each case.

On to `C=CC(=O)Nc1cc(Nc2ncc(C(=O)OC(C)C)c(-c3cn(C)c4ncccc34)n2)c(OC)cc1N(C)CCNC` [Example 74, isopropyl 2-((5-acrylamido-2-methoxy-4-(methyl(2-(methylamino)ethyl)amino)phenyl)amino)-4-(1-methyl-1H-pyrrolo[2,3-b]pyridin-3-yl)pyrimidine-5-carboxylate], for which the IC50 in assay [1] is 100 to 500 nM; in assay [2], under 100 nM; in assay [3], under 100 nM; in assay [4], under 100 nM. The “EGFR exon 21 L858R and T790M mutation IC50” value in assay [5] is reported as “B (Group B compounds have an IC50 value for the indicated mutant between about 100 to about 500 nM)”.

As to `C=CC(=O)Nc1cc(Nc2ncc(C(=O)OC(C)C)c(-c3cn(C)c4ccccc34)n2)c(OC)cc1N(C)C[C@@H]1CCCN1C` [Example 35, (S)-isopropyl 2-((5-acrylamido-2-methoxy-4-(methyl((1-methylpyrrolidin-2-yl)methyl)amino)phenyl)amino)-4-(1-methyl-1H-indol-3-yl)pyrimidine-5-carboxylate], the half-inhibitory concentration (IC50) in assay [1], in assay [2], in assay [3], in assay [4] and in assay [5] was under 100 nM each time.

As for `C=CC(=O)Nc1cc(Nc2nccc(-c3c(-c4ccc(OCc5ccccn5)c(Cl)c4)n(C)c4ccccc34)n2)c(OC)cc1N(C)CCN(C)C` [Example 5, N-(5-((4-(2-(3-chloro-4-(pyridin-2-ylmethoxy)phenyl)-1-methyl-1H-indol-3-yl)pyrimidin-2-yl)amino)-2-((2-(dimethylamino)ethyl)(methyl)amino)-4-methoxyphenyl)acrylamide], the IC50 in assay [1], in assay [2] and in assay [3] was 100 to 500 nM throughout. Further, the “EGFR exon 19 deletion and T790M mutation IC50” value in assay [4] is “B (Group B compounds have an IC50 value for the indicated mutant between about 100 to about 500 nM)”. Moreover, the “EGFR exon 21 L858R and T790M mutation IC50” value in assay [5] is “B (Group B compounds have an IC50 value for the indicated mutant between about 100 to about 500 nM)”.

On to `C=CC(=O)Nc1cc(Nc2ncc(C(=O)OC(C)C)c(-c3cn(C)c4ncccc34)n2)c(OC)cc1N(C)CCN(C)C` [Example 34, isopropyl 2-((5-acrylamido-4-((2-(dimethylamino)ethyl)(methyl)amino)-2-methoxyphenyl)amino)-4-(1-methyl-1H-pyrrolo[2,3-b]pyridin-3-yl)pyrimidine-5-carboxylate], for which the concentration for half-maximal inhibition (IC50) in assay [1], in assay [2], in assay [3], in assay [4] and in assay [5] was under 100 nM throughout.

As for `C=CC(=O)Nc1cc(Nc2ncc(C(=O)OC(C)C)c(-c3cn(C)c4ccccc34)n2)c(OC)cc1N(C)C[C@H]1CCCN1C` [Example 36, (R)-isopropyl 2-((5-acrylamido-2-methoxy-4-(methyl((1-methylpyrrolidin-2-yl)methyl)amino)phenyl)amino)-4-(1-methyl-1H-indol-3-yl)pyrimidine-5-carboxylate], the IC50 in assay [1], in assay [2], in assay [3], in assay [4] and in assay [5] was under 100 nM in each case.

With `C=CC(=O)Nc1cc(Nc2nccc(-c3c(-c4ccccc4)n(C)c4ccccc34)n2)c(OC)cc1N(C)CCN(C)C` [Example 7, N-(2-((2-(dimethylamino)ethyl)(methyl)amino)-4-methoxy-5-((4-(1-methyl-2-phenyl-1H-indol-3-yl)pyrimidin-2-yl)amino)phenyl)acrylamide], the IC50 in assay [1] is 100 to 500 nM; in assay [2] it was 100 to 500 nM; in assay [3] it was under 100 nM; in assay [4], under 100 nM; in assay [5] it was under 100 nM.

For the compound `C=CC(=O)Nc1cc(Nc2ncc(C(=O)OC(C)C)c(-c3c[nH]c4ccccc34)n2)c(OC)cc1N(C)CCN(C)C` [Example 30, isopropyl 2-((5-acrylamido-4-((2-(dimethylamino)ethyl)(methyl)amino)-2-methoxyphenyl)amino)-4-(1H-indol-3-yl)pyrimidine-5-carboxylate], the IC50 in assay [1], in assay [2], in assay [3], in assay [4] and in assay [5] was under 100 nM in each case.

On to `C=CC(=O)Nc1cc(Nc2nccc(-c3c(C(=O)NCCOC)n(C)c4ccccc34)n2)c(OC)cc1N(C)CCN(C)C` [Example 93, 3-(2-((5-acrylamido-4-((2-(dimethylamino)ethyl)(methyl)amino)-2-methoxyphenyl)amino)pyrimidin-4-yl)-N-(2-methoxyethyl)-1-methyl-1H-indole-2-carboxamide], for which the IC50 in assay [1] is over 1000 nM; in assay [2], 500 to 1000 nM. In addition, in assay [4], the “EGFR exon 19 deletion and T790M mutation IC50” value is “B (Group B compounds have an IC50 value for the indicated mutant between about 100 to about 500 nM)”. In addition, in assay [5], the “EGFR exon 21 L858R and T790M mutation IC50” value is “C (Group C compounds have an IC50 value for the indicated mutant between greater than about 500 to about 1 μM)”.
